In ChEMBL document CHEMBL1141010, “Chroman-3-amides as potent Rho kinase inhibitors” (Bioorg Med Chem Lett, 2008):

Assays:
Type in all cases: ADME, organism-based
[1] = Oral bioavailability in rat at 2 mg/kg; conditions: in vivo
[2] = Volume of distribution at steady state in rat at 1 mg/kg, iv and 2 mg/kg, po; conditions: in vivo, read-out: Vdss
[3] = Cmax in rat at 2 mg/kg, po; set-up: dose 2 mg/kg, route oral; conditions: in vivo

## CN(C)CCOc1cc(-c2cn[nH]c2)ccc1NC(=O)C1COc2ccc(F)cc2C1 (centres undefined)
[1]
  bioavailability: 27%
[2]
  Vd: 5.9 L/kg
[3]
  Cmax: 100 nM

## COc1ccc2c(c1)CC(C(=O)Nc1ccc(-c3cn[nH]c3)cc1OCCN(C)C)CO2 (centres undefined)
[1]
  bioavailability: 35%
[2]
  Vd: 1.7 L/kg
[3]
  Cmax: 320 nM

## CN(C)CCOc1cc(-c2cn[nH]c2)ccc1NC(=O)C1COc2ccccc2C1 (centres undefined)
[1]
  bioavailability: 33%
[2]
  Vd: 4.6 L/kg
[3]
  Cmax: 170 nM
